Tests used:
Assay in all cases: Antimicrobial action test (MIC)
Assay type in all cases: cell-based
Staphylococcus mutans = tested on: Staphylococcus mutans
Description: (§1) Examples (Table 1): (MIC—minimum inhibitory concentration)
(§2) Examples: (MIC=minimum inhibitory concentration)

Microsporum gypseum = tested on: Microsporum gypseum
Description: as §1, §2

[1] = tested on: Trichophyton mentagrophytes
Description: as §1, §2

Staphylococcus aureus = tested on: Staphylococcus aureus
Description: as §1, §2

Malassezia furfur = tested on: Malassezia furfur
Description: as §1, §2

Microsporum canis = tested on: Microsporum canis
Description: as §1, §2

Selenomonas artemidis = tested on: Selenomonas artemidis
Description: as §1, §2

Trichophyton rubrum = tested on: Trichophyton rubrum
Description: as §1, §2

Epidermophyton floccosum = tested on: Epidermophyton floccosum
Description: as §1, §2

Staphylococcus sobrinus = tested on: Staphylococcus sobrinus
Description: as §1, §2

[2] = tested on: Trichophyton schoenleinii
Description: as §1, §2

Porphyromonas gingivalis = tested on: Porphyromonas gingivalis
Description: as §1

Measured: MIC (minimum inhibitory concentration)

cyclodextrin [pure cyclodextrin]
>10000 ppm: Staphylococcus mutans | Microsporum gypseum | [1] | Staphylococcus aureus | Malassezia furfur | Microsporum canis | Selenomonas artemidis | Trichophyton rubrum | Epidermophyton floccosum | Staphylococcus sobrinus | [2] | Porphyromonas gingivalis

— patent US20060210658A1, “Processes for obtaining (-)-guaiol and the use thereof” (priority 2000, published 2006)
